According to patent US20100311749A1, “4-BENZOYL-1-SUBSTITUTED-PIPERAZIN-2-ONE DERIVATIVES AS P2X7 MODULATORS” (priority 2007, published 2010):

target: T1, human P2X7 receptor (Homo sapiens, UniProt Q99572); assay: Ethidium Accumulation Assay; type: cell-based; details: HEK293 cells stably expressing human recombinant P2X7 receptors; 1 mM ATP; values given as 'about'; read-out: pIC50 for human P2X7 receptor antagonist activity (blocking ATP responses) in the Ethidium Accumulation Assay (converted)
T1 construct: expressed in transfected cells
T1 sequence (Q99572 1-595): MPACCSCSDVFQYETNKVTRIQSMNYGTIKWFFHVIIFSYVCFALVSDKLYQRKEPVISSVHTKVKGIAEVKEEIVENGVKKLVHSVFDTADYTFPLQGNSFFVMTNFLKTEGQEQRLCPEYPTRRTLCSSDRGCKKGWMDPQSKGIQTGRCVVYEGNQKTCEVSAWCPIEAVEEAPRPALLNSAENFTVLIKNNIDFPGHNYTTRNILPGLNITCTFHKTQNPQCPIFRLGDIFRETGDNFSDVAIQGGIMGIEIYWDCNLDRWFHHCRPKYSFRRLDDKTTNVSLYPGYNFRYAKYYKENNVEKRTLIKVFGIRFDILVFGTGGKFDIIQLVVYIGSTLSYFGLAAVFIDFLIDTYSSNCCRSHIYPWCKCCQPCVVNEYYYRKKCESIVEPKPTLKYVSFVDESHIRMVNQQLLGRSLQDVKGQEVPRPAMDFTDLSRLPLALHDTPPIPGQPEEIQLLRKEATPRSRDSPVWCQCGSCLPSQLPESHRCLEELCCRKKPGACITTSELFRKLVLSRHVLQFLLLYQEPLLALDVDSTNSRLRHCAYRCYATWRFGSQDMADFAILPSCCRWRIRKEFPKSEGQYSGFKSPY
Protocol: Studies were performed using NaCl assay buffer of the following composition: 140 mM NaCl, 10 mM HEPES [4-(2-hydroxyethyl)-1-piperazine-1-ethanesulfonic acid], 5 mM N-methyl-D-glucamine, 5.6 mM KCl, 10 mM D-glucose, 0.5 mM CaCl2 (pH 7.4).
Human Embryonic Kidney (HEK) 293 cells, stably expressing human recombinant P2X7 receptors, were grown in poly-D-lysine pre-treated 96 well plates for 18-24 hours. […] The cells were washed twice with 350 μl of the assay buffer, before addition of 50 μl of the assay buffer containing the putative P2X7 receptor antagonist compound. (A small amount of dimethyl sulfoxide, for initially dissolving the compound, is optionally used and present in this 50 μl test compound sample.) The cells were then incubated at room temperature (19-21° C.) for 30 min before addition of ATP and ethidium (100 μM final assay concentration). The ATP concentration was chosen to be close to the EC80 for the receptor type and was 1 mM for studies on the human P2X7 receptor. Incubations were continued for 8 or 16 min and were terminated by addition of 25 μl of 1.3M sucrose containing 4 mM of the P2X7 receptor antagonist Reactive Black 5 (Aldrich). […] Antagonist pIC50 values for blocking ATP responses were determined using iterative curve fitting techniques.

| SMILES | IC50 |
| --- | --- |
| O=C(c1cccc(Cl)c1Cl)N1CCN(c2ccc(F)cc2Cl)C(=O)C1 [Example 11, 1-(2-Chloro-4-fluorophenyl)-4-[(2,3-dichlorophenyl)carbonyl]-2-piperazinone] | 5.01 to 200 nM |
| O=C(c1cccc(C(F)(F)F)c1Cl)N1CCN(c2ccccc2Cl)C(=O)C1 [Example 9, 1-(2-Chlorophenyl)-4-{[2-chloro-3-(trifluoromethyl)phenyl]carbonyl}-2-piperazinone] | 5.01 to 200 nM |
| O=C(c1c(Cl)cccc1Cl)N1CCN(c2ccc(F)cc2Cl)C(=O)C1 [Example 31, 1-(2-chloro-4-fluorophenyl)-4-[(2,6-dichlorophenyl)carbonyl]-2-piperazinone] | 2.51 to 100 nM |
| O=C(c1cccc(C(F)(F)F)c1F)N1CCN(c2ccc(F)cc2Cl)C(=O)C1 [Example 56, 1-(2-chloro-4-fluorophenyl)-4-{[2-fluoro-3-(trifluoromethyl)phenyl]carbonyl}-2-piperazinone] | 2.51 to 100 nM |
| O=C(c1ccc(F)cc1Cl)N1CCN(c2ccccc2Cl)C(=O)C1 [Example 5, 4-[(2-Chloro-4-fluorophenyl)carbonyl]-1-(2-chlorophenyl)-2-piperazinone] | 5.01 to 200 nM |
| O=C(c1cccc(C(F)(F)F)c1Cl)N1CCN(c2cccc3ccccc23)C(=O)C1 [Example 24, 4-{[2-chloro-3-(trifluoromethyl)phenyl]carbonyl}-1-(1-naphthalenyl)-2-piperazinone] | 2.51 to 100 nM |
| O=C(c1cccc(Cl)c1Cl)N1CCN(c2ccc(F)cc2F)C(=O)C1 [Example 19, 4-[(2,3-Dichlorophenyl)carbonyl]-1-(2,4-difluorophenyl)-2-piperazinone] | 5.01 to 200 nM |
| O=C1CN(C(=O)c2cccc(Cl)c2Cl)CCN1Cc1ccc(F)cc1Cl [Example 15, 1-[(2-Chloro-4-fluorophenyl)methyl]-4-[(2,3-dichlorophenyl)carbonyl]-2-piperazinone] | 5.01 to 200 nM |
| Cc1ccc(N2CCC(O)C2)cc1N1CCN(C(=O)c2cccc(C(F)(F)F)c2Cl)CC1=O (stereo not shown) [Example 83, 4-{[2-chloro-3-(trifluoromethyl)phenyl]carbonyl}-1-[5-(3-hydroxy-1-pyrrolidinyl)-2-methylphenyl]-2-piperazinone] | 2.51 to 100 nM |
| Cc1ccc(N2CCCC2)cc1N1CCN(C(=O)c2cccc(C(F)(F)F)c2Cl)CC1=O [Example 73, 4-{[2-chloro-3-(trifluoromethyl)phenyl]carbonyl}-1-[2-methyl-5-(1-pyrrolidinyl)phenyl]-2-piperazinone] | 2.51 to 100 nM |
| CC(C)c1ccccc1N1CCN(C(=O)c2cccc(C(F)(F)F)c2Cl)CC1=O [Example 25, 4-{[2-chloro-3-(trifluoromethyl)phenyl]carbonyl}-1-[2-(1-methylethyl)phenyl]-2-piperazinone] | 2.51 to 100 nM |
| CC(C)Oc1cc(F)ccc1N1CCN(C(=O)c2cccc(Cl)c2Cl)CC1=O [Example 58, 4-[(2,3-dichlorophenyl)carbonyl]-1-{4-fluoro-2-[(1-methylethyl)oxy]phenyl}-2-piperazinone] | 2.51 to 100 nM |
| CN1CCN(C(=O)c2cccc(Cl)c2Cl)CC1=O [Example 16, 4-[(2,3-Dichlorophenyl)carbonyl]-1-methyl-2-piperazinone] | 5.01 to 200 nM |
| O=C(c1cccc(Cl)c1Cl)N1CCN(c2ccc(F)cc2)C(=O)C1 [Example 13, 4-[(2,3-Dichlorophenyl)carbonyl]-1-(4-fluorophenyl)-2-piperazinone] | 5.01 to 200 nM |
| O=C(c1cccc(C(F)(F)F)c1Cl)N1CCN(c2cc(N3CCOCC3)ccc2Cl)C(=O)C1 [Example 78, 1-[2-chloro-5-(4-morpholinyl)phenyl]-4-{[2-chloro-3-(trifluoromethyl)phenyl]-carbonyl}-2-piperazinone] | 2.51 to 100 nM |
| O=C(c1cccc(C(F)(F)F)c1Cl)N1CCN(c2ccc(F)cc2Cl)C(=O)C1 [Example 10, 1-(2-Chloro-4-fluorophenyl)-4-{[2-chloro-3-(trifluoromethyl)phenyl]carbonyl}-2-piperazinone] | 5.01 to 200 nM |
| O=C1CN(C(=O)c2cccc(C(F)(F)F)c2Cl)CCN1CC1CCCCC1 [Example 66, 4-{[2-chloro-3-(trifluoromethyl)phenyl]carbonyl}-1-(cyclohexylmethyl)-2-piperazinone] | 2.51 to 100 nM |
| CCCN1CCN(C(=O)c2cccc(C(F)(F)F)c2Cl)CC1=O [Example 49, 4-{[2-chloro-3-(trifluoromethyl)phenyl]carbonyl}-1-propyl-2-piperazinone] | 2.51 to 100 nM |
| O=C(c1cccc(C(F)(F)F)c1Cl)N1CCN(c2ccc(F)cc2F)C(=O)C1 [Example 21, 4-{[2-chloro-3-(trifluoromethyl)phenyl]carbonyl}-1-(2,4-difluorophenyl)-2-piperazinone] | 2.51 to 100 nM |
| O=C(c1cccc(Cl)c1Cl)N1CCN(c2ccccc2Cl)C(=O)C1 [Example 6, 1-(2-Dichlorophenyl)-4-[(2,3-dichlorophenyl)carbonyl]-2-piperazinone] | 5.01 to 200 nM |
| Cc1ccccc1N1CCN(C(=O)c2ccc(Cl)cc2Cl)CC1=O [Example 2, 4-[(2,4-Dichlorophenyl)carbonyl]-1-(2-methylphenyl)-2-piperazinone] | 5.01 to 200 nM |
| O=C(c1cccc(Cl)c1Cl)N1CCN(c2ccc(Cl)cc2)C(=O)C1 [Example 7, 1-(4-Chlorophenyl)-4-[(2,3-dichlorophenyl)carbonyl]-2-piperazinone] | 5.01 to 200 nM |
| Cc1c(Br)cccc1N1CCN(C(=O)c2cccc(C(F)(F)F)c2Cl)CC1=O [Example 46, 1-(3-bromo-2-methylphenyl)-4-{[2-chloro-3-(trifluoromethyl)phenyl]carbonyl}-2-piperazinone] | 2.51 to 100 nM |
| CCN1CCN(C(=O)c2cccc(Cl)c2Cl)CC1=O [Example 17, 4-[(2,3-Dichlorophenyl)carbonyl]-1-ethyl-2-piperazinone] | 5.01 to 200 nM |
| Cc1ccc(N2CCOCC2)cc1N1CCN(C(=O)c2cccc(C(F)(F)F)c2Cl)CC1=O [Example 55, 4-{[2-chloro-3-(trifluoromethyl)phenyl]carbonyl}-1-[2-methyl-5-(4-morpholinyl)phenyl]-2-piperazinone] | 2.51 to 100 nM |
